What was measured:
[1] = biological target: T1, ALK5 kinase (Homo sapiens, UniProt P36897); experiment: LanthaScreen Eu Kinase Binding Assay; conditions: Kinase Tracer 178, Eu-anti-GST Antibody, read-out: IC50 Enzyme
T1 sequence (P36897 34-503): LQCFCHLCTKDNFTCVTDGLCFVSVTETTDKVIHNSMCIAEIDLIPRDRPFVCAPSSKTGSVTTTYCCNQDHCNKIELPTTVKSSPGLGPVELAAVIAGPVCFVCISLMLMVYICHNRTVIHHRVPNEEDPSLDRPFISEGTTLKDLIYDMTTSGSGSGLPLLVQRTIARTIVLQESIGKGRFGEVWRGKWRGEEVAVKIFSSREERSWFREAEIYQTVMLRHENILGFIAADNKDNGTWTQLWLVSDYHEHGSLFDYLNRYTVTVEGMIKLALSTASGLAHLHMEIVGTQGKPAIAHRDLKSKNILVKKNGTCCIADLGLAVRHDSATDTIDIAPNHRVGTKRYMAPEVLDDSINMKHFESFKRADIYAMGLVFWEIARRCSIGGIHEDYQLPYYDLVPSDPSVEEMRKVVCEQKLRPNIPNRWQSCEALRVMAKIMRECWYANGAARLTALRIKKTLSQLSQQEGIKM
Outline: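 Tracer-displacement TR-FRET: after 30 min RT compound–kinase preincubation, Eu-labelled anti-GST antibody plus Kinase Tracer 178 were incubated 60 min at RT. Binding was read as a lower 665 nm/615 nm emission ratio (excitation 340 nm).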

[2] = test system: TGF-β signaling; experiment: Assay for evaluating cellular inhibition of TGF-β signaling, 4T1 (SBE-luc2P) luciferase reporter; type: cell-based; conditions: Mus musculus, 4T1, 4T1 (SBE-luc2P) transient pool, 0.2% FBS, 2 h pre-treatment, TGF-β1 2 ng/mL 24 h; read-out: IC50 4T1 Cell
Outline: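 Luminescence from SMAD-binding-element luciferase was measured after 24 h of 2 ng/mL TGF-β1 at 37 °C, following 2 h compound pre-treatment. HEK293 stable reporter cells were used at 2.5×10^4/well in 0.5% FBS (~80% confluent); the 4T1 SBE-luc2P transient pool at 6×10^3/well in 0.2% FBS (~60% confluent).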

NC(=O)c1cccc(Nc2cc(Oc3sc(C4CC4)nc3-c3ccccc3)ccn2)n1 [A-124, 6-((4-((2-Cyclopropyl-4-phenylthiazol-5-yl)oxy)pyridin-2-yl)amino)picolinamide]
IC50 [1]: < 100 nM | IC50 [2]: < 100 nM

CNC(=O)c1cccc(Nc2cc(Oc3sc(C4CC4)nc3-c3ccccc3)ccn2)n1 [A-125, 6-((4-((2-Cyclopropyl-4-phenylthiazol-5-yl)oxy)pyridin-2-yl)amino)-N-methylpicolinamide]
IC50 [1]: < 100 nM | IC50 [2]: < 100 nM

CNC(=O)c1ccc(Nc2cc(Oc3sc(C4CC4)nc3-c3ccccc3)ccn2)cc1 [A-126, 4-((4-((2-Cyclopropyl-4-phenylthiazol-5-yl)oxy)pyridin-2-yl)amino)-N-methylbenzamide]
IC50 [1]: < 100 nM | IC50 [2]: < 100 nM

CS(=O)(=O)Nc1ccc(Nc2cc(Oc3sc(C4CC4)nc3-c3ccccc3)ccn2)nc1 [A-127, N-(6-((4-((2-Cyclopropyl-4-phenylthiazol-5-yl)oxy)pyridin-2-yl)amino)pyridin-3-yl)methanesulfonamide]
IC50 [1]: < 100 nM | IC50 [2]: < 100 nM

CS(=O)(=O)Nc1ccc(Nc2cc(Oc3sc(C4CC4)nc3-c3ccccc3)ccn2)cc1 [A-128, N-(4-((4-((2-Cyclopropyl-4-phenylthiazol-5-yl)oxy)pyridin-2-yl)amino)phenyl)methanesulfonamide]
IC50 [1]: < 100 nM | IC50 [2]: < 100 nM

NC(=O)c1ccc(Nc2cc(Oc3sc(C4CC4)nc3-c3ccccc3)ccn2)nc1 [A-129, 6-((4-((2-Cyclopropyl-4-phenylthiazol-5-yl)oxy)pyridin-2-yl)amino)nicotinamide]
IC50 [1]: < 100 nM | IC50 [2]: < 100 nM

O=C(O)c1ccc(Nc2cc(Oc3sc(C4CC4)nc3-c3ccccc3)ccn2)nc1 [A-132, 6-((4-((2-Cyclopropyl-4-phenylthiazol-5-yl)oxy)pyridin-2-yl)amino)nicotinic acid]
IC50 [1]: < 100 nM | IC50 [2]: < 100 nM

CNC(=O)c1ccc(Nc2cc(Oc3sc(C4CC4)nc3-c3ccccc3)ccn2)nc1 [A-133, 6-((4-((2-Cyclopropyl-4-phenylthiazol-5-yl)oxy)pyridin-2-yl)amino)-N-methylnicotinamide]
IC50 [1]: < 100 nM | IC50 [2]: < 100 nM

O=C(O)c1cccc(Nc2cc(Oc3sc(C4CC4)nc3-c3ccccc3)ccn2)n1 [A-134, 6-((4-((2-Cyclopropyl-4-phenylthiazol-5-yl)oxy)pyridin-2-yl)amino)picolinic acid]
IC50 [1]: < 100 nM | IC50 [2]: < 100 nM

O=C(O)c1cccc(Nc2cc(Oc3sc(C4CC4)nc3-c3ccccc3)ccn2)c1 [A-135, 3-((4-((2-Cyclopropyl-4-phenylthiazol-5-yl)oxy)pyridin-2-yl)amino)benzoic acid]
IC50 [1]: < 100 nM | IC50 [2]: < 100 nM

O=C(O)c1ccc(Nc2cc(Oc3sc(C4CC4)nc3-c3ccccc3)ccn2)cc1 [A-136, 4-((4-((2-Cyclopropyl-4-phenylthiazol-5-yl)oxy)pyridin-2-yl)amino)benzoic acid]
IC50 [1]: < 100 nM | IC50 [2]: < 100 nM

O=C(NO)c1ccc(Nc2cc(Oc3sc(C4CC4)nc3-c3ccccc3)ccn2)nc1 [A-138, 6-((4-((2-Cyclopropyl-4-phenylthiazol-5-yl)oxy)pyridin-2-yl)amino)-N-hydroxynicotinamide]
IC50 [1]: < 100 nM | IC50 [2]: < 100 nM

O=C(NO)c1ccc(Nc2cc(Oc3sc(C4CC4)nc3-c3ccccc3)ccn2)cc1 [A-139, 4-((4-((2-Cyclopropyl-4-phenylthiazol-5-yl)oxy)pyridin-2-yl)amino)-N-hydroxybenzamide]
IC50 [1]: < 100 nM | IC50 [2]: > 100 nM

CS(=O)(=O)NC(=O)c1ccc(Nc2cc(Oc3sc(C4CC4)nc3-c3ccccc3)ccn2)nc1 [A-140, 6-((4-((2-Cyclopropyl-4-phenylthiazol-5-yl)oxy)pyridin-2-yl)amino)-N-(methylsulfonyl)nicotinamide]
IC50 [1]: < 100 nM | IC50 [2]: > 100 nM

COc1nc(-c2ccccc2)c(Oc2ccnc(Nc3cccc(C(C)(C)O)c3)c2)s1 [A-141, 2-(3-((4-((2-Methoxy-4-phenylthiazol-5-yl)oxy)pyridin-2-yl)amino)phenyl)propan-2-ol]
IC50 [1]: < 100 nM | IC50 [2]: > 100 nM

COc1nc(-c2ccccc2)c(Oc2ccnc(Nc3cccc(S(N)(=O)=O)c3)c2)s1 [A-142, 3-((4-((2-Methoxy-4-phenylthiazol-5-yl)oxy)pyridin-2-yl)amino)benzenesulfonamide]
IC50 [1]: < 100 nM | IC50 [2]: > 100 nM

COc1nc(-c2ccccc2)c(Oc2ccnc(Nc3cccc(C(N)=O)c3)c2)s1 [A-143, 3-((4-((2-Methoxy-4-phenylthiazol-5-yl)oxy)pyridin-2-yl)amino)benzamide]
IC50 [1]: < 100 nM | IC50 [2]: > 100 nM

COc1nc(-c2ccccc2)c(Oc2ccnc(Nc3cccc(C(=O)O)c3)c2)s1 [A-144, 3-((4-((2-Methoxy-4-phenylthiazol-5-yl)oxy)pyridin-2-yl)amino)benzoic acid]
IC50 [1]: < 100 nM | IC50 [2]: > 100 nM

NS(=O)(=O)c1cccc(Nc2cc(Oc3sc(C(F)(F)F)nc3-c3ccccc3)ccn2)c1 [A-145, 3-((4-((4-Phenyl-2-(trifluoromethyl)thiazol-5-yl)oxy)pyridin-2-yl)amino)benzenesulfonamide]
IC50 [1]: < 100 nM | IC50 [2]: > 100 nM

NC(=O)c1ccc(Nc2cc(Oc3sc(C(F)(F)F)nc3-c3ccccc3)ccn2)nc1 [A-146, 6-((4-((4-Phenyl-2-(trifluoromethyl)thiazol-5-yl)oxy)pyridin-2-yl)amino)nicotinamide]
IC50 [1]: < 100 nM | IC50 [2]: < 100 nM

NC(=O)c1ccc(Nc2cc(Oc3sc(C(F)(F)F)nc3-c3ccccc3)ccn2)cc1 [A-147, 4-((4-((4-Phenyl-2-(trifluoromethyl)thiazol-5-yl)oxy)pyridin-2-yl)amino)benzamide]
IC50 [1]: < 100 nM | IC50 [2]: < 100 nM

CNC(=O)c1ccc(Nc2cc(Oc3sc(C(F)(F)F)nc3-c3ccccc3)ccn2)cc1 [A-148, N-Methyl-4-((4-((4-phenyl-2-(trifluoromethyl)thiazol-5-yl)oxy)pyridin-2-yl)amino)benzamide]
IC50 [1]: < 100 nM | IC50 [2]: < 100 nM

O=C(O)c1ccc(Nc2cc(Oc3sc(C(F)(F)F)nc3-c3ccccc3)ccn2)nc1 [A-149, 6-((4-((4-Phenyl-2-(trifluoromethyl)thiazol-5-yl)oxy)pyridin-2-yl)amino)nicotinic acid]
IC50 [1]: < 100 nM | IC50 [2]: < 100 nM

CNC(=O)c1ccc(Nc2cc(Oc3sc(C(F)(F)F)nc3-c3ccccc3)ccn2)nc1 [A-150, N-Methyl-6-((4-((4-phenyl-2-(trifluoromethyl)thiazol-5-yl)oxy)pyridin-2-yl)amino)nicotinamide]
IC50 [1]: < 100 nM | IC50 [2]: < 100 nM

O=C(O)c1cccc(Nc2cc(Oc3sc(C(F)(F)F)nc3-c3ccccc3)ccn2)c1 [A-151, 3-((4-((4-Phenyl-2-(trifluoromethyl)thiazol-5-yl)oxy)pyridin-2-yl)amino)benzoic acid]
IC50 [1]: < 100 nM | IC50 [2]: > 100 nM

O=C(O)c1ccc(Nc2cc(Oc3sc(C(F)(F)F)nc3-c3ccccc3)ccn2)cc1 [A-152, 4-((4-((4-Phenyl-2-(trifluoromethyl)thiazol-5-yl)oxy)pyridin-2-yl)amino)benzoic acid]
IC50 [1]: < 100 nM | IC50 [2]: < 100 nM

CN(C)c1nc(-c2ccccc2)c(Oc2ccnc(Nc3cccc(C(C)(C)O)c3)c2)s1 [A-153, 2-(3-((4-((2-(Dimethylamino)-4-phenylthiazol-5-yl)oxy)pyridin-2-yl)amino)phenyl)propan-2-ol]
IC50 [1]: < 100 nM | IC50 [2]: > 100 nM
